In patent publication US20040259866A1, “Calcium channel blockers comprising two benzhydril moieties” (priority 1998, published 2004):

The molecules below were run against T1, rat α1B+α2b+β1b channels (N-type channels) (Rattus norvegicus, UniProt Q02294) (assay: Block of α1B N-type channels, whole cell patch recordings (Example 6)). Settings: 0.067 Hz; HEK 293, 5 mM barium as charge carrier; read-out: Block of α1B N-type Channels IC50, 0.067 Hz.
T1 construct: expressed in transfected cells
Assay type: cell-based
Description: Antagonist activity was measured using whole cell patch recordings on human embryonic kidney cells either stably or transiently expressing rat α1B+α2b+β1b channels (N-type channels) with 5 mM barium as a charge carrier.
For transient expression, host cells, such as human embryonic kidney cells, HEK 293 (ATCC# CRL 1573) were grown in standard DMEM medium supplemented with 2 mM glutamine and 10% fetal bovine serum. HEK 293 cells were transfected by a standard calcium-phosphate-DNA coprecipitation method using the rat α1B+β1b+α2δ N-type calcium channel subunits in a vertebrate expression vector (for example, see Current Protocols in Molecular Biology).
After an incubation period of from 24 to 72 hrs the culture medium was removed and replaced with external recording solution (see below). Whole cell patch clamp experiments were performed using an Axopatch 200B amplifier (Axon Instruments, Burlingame, Calif.) linked to an IBM compatible personal computer equipped with pCLAMP software. Borosilicate glass patch pipettes (Sutter Instrument Co., Novato, Calif.) were polished (Microforge, Narishige, Japan) to a resistance of about 4 MΩ when filled with cesium methanesulfonate internal solution (composition in MM: 109 CsCH3SO4, 4 MgCl2, 9 EGTA, 9 HEPES, pH 7.2). Cells were bathed in 5 mM Ba^++ (in mM: 5 BaCl2, 1 MgCl2, 10 HEPES, 40 tetraethylammonium chloride, 10 glucose, 87.5 CsCl pH 7.2). […] Drugs were perfused directly into the vicinity of the cells using a microperfusion system.
Normalized dose-response curves were fit (Sigmaplot 4.0, SPSS Inc., Chicago, Ill.) by the Hill equation to determine IC50 values. Steady-state inactivation curves were plotted as the normalized test pulse amplitude following 5 s inactivating prepulses at +10 mV increments. Inactivation curves were fit (Sigmaplot 4.0) with the Boltzman equation, Ipeak (normalized)=1/(1+exp((V-Vh)z/25.6)), where V and Vh are the conditioning and half inactivation potentials, respectively, and z is the slope factor.
Using the procedure set forth above, various compounds of the invention were tested for their ability to block N-type calcium channels.

T1 sequence (Q02294 whole entry): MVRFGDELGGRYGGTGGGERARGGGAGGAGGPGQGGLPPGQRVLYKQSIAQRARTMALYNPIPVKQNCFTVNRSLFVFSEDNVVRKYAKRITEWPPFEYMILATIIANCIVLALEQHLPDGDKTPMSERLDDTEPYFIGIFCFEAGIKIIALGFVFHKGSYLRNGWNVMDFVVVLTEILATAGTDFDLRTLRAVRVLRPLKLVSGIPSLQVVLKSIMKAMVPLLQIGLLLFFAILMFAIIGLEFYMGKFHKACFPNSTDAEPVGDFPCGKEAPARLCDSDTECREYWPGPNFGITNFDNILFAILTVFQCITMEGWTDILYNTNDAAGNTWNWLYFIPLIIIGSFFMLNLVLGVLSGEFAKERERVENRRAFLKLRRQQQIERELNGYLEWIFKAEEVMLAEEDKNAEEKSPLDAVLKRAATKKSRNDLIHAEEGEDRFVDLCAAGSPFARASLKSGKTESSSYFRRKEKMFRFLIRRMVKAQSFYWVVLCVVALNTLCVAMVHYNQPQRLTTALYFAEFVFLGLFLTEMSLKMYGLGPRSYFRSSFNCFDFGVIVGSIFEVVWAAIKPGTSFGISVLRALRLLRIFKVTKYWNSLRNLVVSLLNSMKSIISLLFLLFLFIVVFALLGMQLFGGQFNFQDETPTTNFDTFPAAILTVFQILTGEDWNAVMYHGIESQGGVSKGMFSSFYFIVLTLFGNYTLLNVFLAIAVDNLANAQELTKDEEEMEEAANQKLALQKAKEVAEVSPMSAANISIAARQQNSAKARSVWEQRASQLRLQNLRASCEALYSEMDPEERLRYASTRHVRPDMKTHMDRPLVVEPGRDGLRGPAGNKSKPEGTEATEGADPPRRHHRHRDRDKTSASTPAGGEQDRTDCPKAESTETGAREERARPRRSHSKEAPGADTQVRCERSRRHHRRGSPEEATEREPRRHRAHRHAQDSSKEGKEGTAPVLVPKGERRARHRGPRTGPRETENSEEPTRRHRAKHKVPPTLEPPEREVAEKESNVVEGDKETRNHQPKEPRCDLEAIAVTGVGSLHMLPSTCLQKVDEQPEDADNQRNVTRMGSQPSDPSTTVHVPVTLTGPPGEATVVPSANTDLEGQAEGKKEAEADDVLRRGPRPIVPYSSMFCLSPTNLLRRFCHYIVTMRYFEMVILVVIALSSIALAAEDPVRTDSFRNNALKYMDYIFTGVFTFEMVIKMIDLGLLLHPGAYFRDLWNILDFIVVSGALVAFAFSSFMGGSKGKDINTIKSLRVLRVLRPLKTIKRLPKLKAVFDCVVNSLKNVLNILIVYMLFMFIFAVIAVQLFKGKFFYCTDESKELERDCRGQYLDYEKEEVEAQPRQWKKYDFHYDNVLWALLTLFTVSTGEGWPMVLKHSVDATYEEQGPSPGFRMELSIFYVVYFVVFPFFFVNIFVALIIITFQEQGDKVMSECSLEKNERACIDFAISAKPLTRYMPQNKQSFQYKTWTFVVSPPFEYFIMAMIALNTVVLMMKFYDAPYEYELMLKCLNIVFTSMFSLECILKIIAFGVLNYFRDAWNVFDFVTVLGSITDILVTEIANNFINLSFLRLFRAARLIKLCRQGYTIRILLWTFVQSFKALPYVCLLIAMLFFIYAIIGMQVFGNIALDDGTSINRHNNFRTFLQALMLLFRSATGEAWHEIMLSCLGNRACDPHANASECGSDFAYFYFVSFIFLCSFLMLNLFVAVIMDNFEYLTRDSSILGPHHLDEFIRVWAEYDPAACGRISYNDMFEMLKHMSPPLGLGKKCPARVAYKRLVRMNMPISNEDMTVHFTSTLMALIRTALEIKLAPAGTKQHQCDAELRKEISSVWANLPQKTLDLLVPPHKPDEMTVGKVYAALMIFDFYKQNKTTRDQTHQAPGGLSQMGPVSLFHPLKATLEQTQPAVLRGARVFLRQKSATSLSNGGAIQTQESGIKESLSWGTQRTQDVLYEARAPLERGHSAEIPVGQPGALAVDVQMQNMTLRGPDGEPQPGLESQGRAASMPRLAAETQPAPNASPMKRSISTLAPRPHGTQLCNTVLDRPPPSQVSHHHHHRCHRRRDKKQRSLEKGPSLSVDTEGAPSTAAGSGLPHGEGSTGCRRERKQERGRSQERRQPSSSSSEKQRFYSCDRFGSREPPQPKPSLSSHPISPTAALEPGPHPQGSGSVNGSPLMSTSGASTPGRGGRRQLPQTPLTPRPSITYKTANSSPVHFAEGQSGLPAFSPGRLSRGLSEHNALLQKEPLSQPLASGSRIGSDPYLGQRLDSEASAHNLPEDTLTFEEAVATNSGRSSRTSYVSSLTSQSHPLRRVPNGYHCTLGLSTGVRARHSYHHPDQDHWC

| Compound | IC50 |
| --- | --- |
| COc1ccc(C(c2ccccc2)N2CCN(C(=O)CC(c3ccccc3)c3ccccc3)CC2)cc1 (centres unmarked) [Compound P20] | 320 nM |
| COc1ccc(C(c2ccc(OC)cc2)N2CCN(C(=O)CC(c3ccccc3)c3ccccc3)CC2)cc1 [Compound P19] | 360 nM |
| CCOC(=O)C1CN(C(c2ccccc2)c2ccccc2)CCN1C(=O)CC(c1ccccc1)c1ccccc1 (centres unmarked) [Compound P41] | 420 nM |
| CC1CN(C(c2ccccc2)c2ccccc2)CCN1C(=O)CC(c1ccccc1)c1ccccc1 (centres unmarked) [Compound P37] | 162 nM |
| O=C(CC(c1ccccc1)c1ccccc1)N1CCN(C2c3ccccc3S(=O)(=O)c3ccccc32)CC1 [Compound P27] | 854 nM |
| COc1cc(C(c2ccccc2)N2CCN(C(=O)CC(c3ccccc3)c3ccccc3)CC2)cc(OC)c1O (centres unmarked) [Compound P21] | 437 nM |
| O=C(CC(c1ccccc1)c1ccccc1)N1CCN(C(c2ccccc2)c2cc(C(F)(F)F)cc(C(F)(F)F)c2)CC1 (centres unmarked) [P10 (HC1)] | 300 nM |
| O=C(CC(c1ccccc1)c1ccccc1)N1CCN(C(c2ccccc2)c2cccc(Cl)c2Cl)CC1 (centres unmarked) [Compound P15] | 348 nM |
| O=C(CC(c1ccccc1)c1ccccc1)N1CCN(C(c2ccccc2)c2cc(C(F)(F)F)cc(C(F)(F)F)c2)CC1 (centres unmarked) [Compound P10] | 550 nM |
| O=C(CC(c1ccccc1)c1ccccc1)N1CCN(C(c2ccccc2)c2ccc(F)cc2)CC1 (centres unmarked) [Compound P24] | 600 nM |
| O=C(CC(c1ccccc1)c1ccccc1)N1CCN(C(c2ccccc2)c2ccccc2C(F)(F)F)CC1 (centres unmarked) [Compound P22] | 538 nM |
| O=C(CC(c1ccccc1)c1ccccc1)N1CCN(C(c2ccccc2)c2ccccc2)C(=O)C1 [Compound P34, 1-Benzhydryl-4-(3,3-diphenyl-propionyl)-piperazin-2-one] | 737 nM |
| COc1cc(C(c2ccccc2)N2CCN(C(=O)CC(c3ccccc3)c3ccccc3)CC2)cc(OC)c1OC (centres unmarked) [Compound P25] | 1090 nM |
| O=C(CC(c1ccccc1)c1ccccc1)N1CCN(C(c2ccccc2)c2ccc(O)cc2)CC1 (centres unmarked) [Compound P49] | 340 nM |

Same assay, conditions: 0.2 Hz; HEK 293, 5 mM barium as charge carrier; read-out: Block of α1B N-type Channels IC50, 0.2 Hz

| Compound | IC50 |
| --- | --- |
| COc1ccc(C(c2ccccc2)N2CCN(C(=O)CC(c3ccccc3)c3ccccc3)CC2)cc1 (centres unmarked) [Compound P20] | 250 nM |
| COc1ccc(C(c2ccc(OC)cc2)N2CCN(C(=O)CC(c3ccccc3)c3ccccc3)CC2)cc1 [Compound P19] | 249 nM |
| CCOC(=O)C1CN(C(c2ccccc2)c2ccccc2)CCN1C(=O)CC(c1ccccc1)c1ccccc1 (centres unmarked) [Compound P41] | 390 nM |
| CC1CN(C(c2ccccc2)c2ccccc2)CCN1C(=O)CC(c1ccccc1)c1ccccc1 (centres unmarked) [Compound P37] | 24 nM |
| O=C(CC(c1ccccc1)c1ccccc1)N1CCN(C2c3ccccc3S(=O)(=O)c3ccccc32)CC1 [Compound P27] | 552 nM |
| COc1cc(C(c2ccccc2)N2CCN(C(=O)CC(c3ccccc3)c3ccccc3)CC2)cc(OC)c1O (centres unmarked) [Compound P21] | 252 nM |
| O=C(CC(c1ccccc1)c1ccccc1)N1CCN(C(c2ccccc2)c2cc(C(F)(F)F)cc(C(F)(F)F)c2)CC1 (centres unmarked) [P10 (HC1)] | 190 nM |
| O=C(CC(c1ccccc1)c1ccccc1)N1CCN(C(c2ccccc2)c2cccc(Cl)c2Cl)CC1 (centres unmarked) [Compound P15] | 217 nM |
| O=C(CC(c1ccccc1)c1ccccc1)N1CCN(C(c2ccccc2)c2cc(C(F)(F)F)cc(C(F)(F)F)c2)CC1 (centres unmarked) [Compound P10] | 450 nM |
| O=C(CC(c1ccccc1)c1ccccc1)N1CCN(C(c2ccccc2)c2ccc(F)cc2)CC1 (centres unmarked) [Compound P24] | 380 nM |
| O=C(CC(c1ccccc1)c1ccccc1)N1CCN(C(c2ccccc2)c2ccccc2C(F)(F)F)CC1 (centres unmarked) [Compound P22] | 301 nM |
| O=C(CC(c1ccccc1)c1ccccc1)N1CCN(C(c2ccccc2)c2ccccc2)C(=O)C1 [Compound P34, 1-Benzhydryl-4-(3,3-diphenyl-propionyl)-piperazin-2-one] | 680 nM |
| COc1cc(C(c2ccccc2)N2CCN(C(=O)CC(c3ccccc3)c3ccccc3)CC2)cc(OC)c1OC (centres unmarked) [Compound P25] | 513 nM |
| O=C(CC(c1ccccc1)c1ccccc1)N1CCN(C(c2ccccc2)c2ccc(O)cc2)CC1 (centres unmarked) [Compound P49] | 320 nM |

These molecules were tested against T2, human α1G subunits (T-type channels) (Homo sapiens, UniProt O43497) (assay: Block of α1G T-type channels, patch clamp in HEK cell lines (Example 8)). Settings: 80 mV (inactivation protocol); read-out: Block of α1G T-type Channels IC50, 80 mV.
T2 construct: expressed in transfected cells
T2 sequence (O43497 whole entry): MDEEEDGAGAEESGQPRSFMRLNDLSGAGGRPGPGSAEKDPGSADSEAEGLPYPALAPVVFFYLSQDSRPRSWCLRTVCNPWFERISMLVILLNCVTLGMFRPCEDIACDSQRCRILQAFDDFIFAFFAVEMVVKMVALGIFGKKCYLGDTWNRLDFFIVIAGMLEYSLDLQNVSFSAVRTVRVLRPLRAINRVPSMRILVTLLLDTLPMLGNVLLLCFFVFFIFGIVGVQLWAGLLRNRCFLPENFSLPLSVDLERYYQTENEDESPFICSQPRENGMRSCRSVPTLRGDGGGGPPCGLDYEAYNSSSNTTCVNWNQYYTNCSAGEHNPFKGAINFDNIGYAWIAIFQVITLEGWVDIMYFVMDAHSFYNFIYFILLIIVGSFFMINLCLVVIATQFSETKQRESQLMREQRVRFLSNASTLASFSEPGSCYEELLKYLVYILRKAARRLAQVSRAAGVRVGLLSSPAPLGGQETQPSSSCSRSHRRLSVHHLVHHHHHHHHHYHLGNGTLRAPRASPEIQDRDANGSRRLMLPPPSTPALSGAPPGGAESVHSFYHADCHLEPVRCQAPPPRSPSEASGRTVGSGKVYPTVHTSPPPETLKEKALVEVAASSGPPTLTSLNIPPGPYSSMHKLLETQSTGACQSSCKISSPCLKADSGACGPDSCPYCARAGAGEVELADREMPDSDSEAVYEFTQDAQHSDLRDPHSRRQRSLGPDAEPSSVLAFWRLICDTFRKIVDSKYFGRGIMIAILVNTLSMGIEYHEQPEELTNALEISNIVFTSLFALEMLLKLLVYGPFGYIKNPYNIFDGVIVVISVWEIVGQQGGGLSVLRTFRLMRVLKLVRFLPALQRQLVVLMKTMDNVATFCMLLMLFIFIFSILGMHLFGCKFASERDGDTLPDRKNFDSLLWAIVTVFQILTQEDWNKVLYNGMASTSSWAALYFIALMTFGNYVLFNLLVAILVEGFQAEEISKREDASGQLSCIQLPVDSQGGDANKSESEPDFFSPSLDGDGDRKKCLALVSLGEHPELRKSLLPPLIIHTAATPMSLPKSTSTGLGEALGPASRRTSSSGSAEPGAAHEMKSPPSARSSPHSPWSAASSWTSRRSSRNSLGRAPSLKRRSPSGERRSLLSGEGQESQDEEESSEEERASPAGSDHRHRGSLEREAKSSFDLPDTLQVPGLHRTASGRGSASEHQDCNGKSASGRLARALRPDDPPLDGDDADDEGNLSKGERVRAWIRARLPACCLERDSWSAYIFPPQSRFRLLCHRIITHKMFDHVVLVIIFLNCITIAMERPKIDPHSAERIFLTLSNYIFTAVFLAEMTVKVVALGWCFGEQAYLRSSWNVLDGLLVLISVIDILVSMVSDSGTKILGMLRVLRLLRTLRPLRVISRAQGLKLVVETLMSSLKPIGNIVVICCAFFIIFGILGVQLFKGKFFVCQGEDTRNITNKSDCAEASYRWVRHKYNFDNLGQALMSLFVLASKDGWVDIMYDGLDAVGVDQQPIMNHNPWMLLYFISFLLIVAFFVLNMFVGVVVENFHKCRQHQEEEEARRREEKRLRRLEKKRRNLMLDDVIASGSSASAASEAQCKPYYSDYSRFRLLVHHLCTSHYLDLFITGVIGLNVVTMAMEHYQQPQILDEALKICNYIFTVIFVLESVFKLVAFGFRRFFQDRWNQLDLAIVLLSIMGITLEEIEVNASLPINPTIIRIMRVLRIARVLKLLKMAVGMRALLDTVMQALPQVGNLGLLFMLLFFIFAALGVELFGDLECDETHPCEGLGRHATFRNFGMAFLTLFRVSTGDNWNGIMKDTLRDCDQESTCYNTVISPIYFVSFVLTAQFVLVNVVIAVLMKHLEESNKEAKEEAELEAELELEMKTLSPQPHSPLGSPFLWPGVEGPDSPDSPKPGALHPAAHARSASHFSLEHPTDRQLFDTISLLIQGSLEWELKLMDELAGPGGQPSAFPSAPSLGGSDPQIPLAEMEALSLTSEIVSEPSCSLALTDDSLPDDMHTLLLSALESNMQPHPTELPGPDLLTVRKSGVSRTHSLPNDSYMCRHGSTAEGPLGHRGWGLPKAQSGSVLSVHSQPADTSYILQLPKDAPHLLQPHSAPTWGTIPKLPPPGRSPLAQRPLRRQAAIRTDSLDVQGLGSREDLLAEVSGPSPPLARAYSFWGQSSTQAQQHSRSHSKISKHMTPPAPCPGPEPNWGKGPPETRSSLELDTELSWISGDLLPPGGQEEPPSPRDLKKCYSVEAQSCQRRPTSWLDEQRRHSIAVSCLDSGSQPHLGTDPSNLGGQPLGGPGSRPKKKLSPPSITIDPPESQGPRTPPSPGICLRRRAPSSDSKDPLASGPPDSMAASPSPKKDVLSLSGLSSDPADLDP
Assay type: cell-based
Description: Standard patch-clamp techniques were employed to identify blockers of T-type currents. Briefly, previously described HEK cell lines stably expressing human α1G subunits were used for all the recordings (passage #: 4-20, 37° C., 5% CO2). To obtain T-type currents, plastic dishes containing semi-confluent cells were positioned on the stage of a ZEISS AXIOVERT S100 microscope after replacing the culture medium with external solution (see below). Whole-cell patches were obtained using pipettes (borosilicate glass with filament, O.D.: 1.5 mm, I.D.: 0.86 mm, 10 cm length), fabricated on a SUTTER P-97 puller with resistance values of ˜5 MΩ (see below for internal medium).
In the non-inactivating protocol, the holding potential is set at −110 mV and with a pre-pulse at −100 mV for 1 second prior to the test pulse at −40 mV for 50 ms; in the inactivation protocol, the pre-pulse is at approximately −85 mV for 1 second, which inactivates about 15% of the T-type channels, as shown below. [formula]
Test compounds were dissolved in external solution, 0.1-0.01% DMSO. After ˜10 min rest, they were applied by gravity close to the cell using a WPI microfil tubing. The “non-inactivated” pre-pulse was used to examine the resting block of a compound. The “inactivated” protocol was employed to study voltage-dependent block, but the initial data shown below were mainly obtained using the non-inactivated protocol only. IC50 values are shown for various compounds of the invention in Table 5.

| Compound | IC50 |
| --- | --- |
| CCOC(=O)C1CN(C(c2ccccc2)c2ccccc2)CCN1C(=O)CC(c1ccccc1)c1ccccc1 (centres unmarked) [Compound P41] | 363 nM |
| CC1CN(C(c2ccccc2)c2ccccc2)CCN1C(=O)CC(c1ccccc1)c1ccccc1 (centres unmarked) [Compound P37] | 474 nM |
| O=C(CC(c1ccccc1)c1ccccc1)N1CCN(C(c2ccccc2)c2ccc(O)cc2)CC1 (centres unmarked) [Compound P49] | 835 nM |

Same assay, conditions: 100 mV (non-inactivating protocol); read-out: Block of α1G T-type Channels IC50, 100 mV

| Compound | IC50 |
| --- | --- |
| O=C(CC(c1ccccc1)c1ccccc1)N1CCN(C2c3ccccc3-c3ccccc32)CC1 [Compound P31] | 371 nM |
| COc1ccc(C(c2ccc(OC)cc2)N2CCN(C(=O)CC(c3ccccc3)c3ccccc3)CC2)cc1 [Compound P19] | 745 nM |
| O=C(CC1c2ccccc2-c2ccccc21)N1CCN(C(c2ccccc2)c2ccccc2)CC1 [Compound P33] | 404 nM |
| CCOC(=O)C1CN(C(c2ccccc2)c2ccccc2)CCN1C(=O)CC(c1ccccc1)c1ccccc1 (centres unmarked) [Compound P41] | 1010 nM |
| CC1CN(C(c2ccccc2)c2ccccc2)CCN1C(=O)CC(c1ccccc1)c1ccccc1 (centres unmarked) [Compound P37] | 991 nM |
| O=C(CC(c1ccccc1)c1ccccc1)N1CCN(C(c2ccccc2)c2cccc(Cl)c2Cl)CC1 (centres unmarked) [Compound P15] | 63 nM |
| O=C(CC(c1ccccc1)c1ccccc1)N1CCN(C(c2ccccc2)c2ccc(O)cc2)CC1 (centres unmarked) [Compound P49] | 2700 nM |

These molecules were tested on rat formalin model (assay: Formalin-induced pain model). Settings: 30 mg/kg IP, 10 minutes prior to formalin, saline control=100%.
Assay type: in vivo
Description: The effects of intrathecally delivered compounds of the invention on the rat formalin model were measured. The compounds were reconstituted to stock solutions of approximately 10 mg/ml in propylene glycol. Eight Holtsman male rats of 275-375 g size were randomly selected per test compound.
The following study groups were used, with test compounds, vehicle control (propylene glycol) and saline delivered intraperitoneally (IP):
Prior to initiation of drug delivery baseline behavioral and testing data were taken.
On the morning of testing, a small metal band (0.5 g) was loosely placed around the right hind paw. The rat was placed in a cylindrical Plexiglas chamber for adaptation a minimum of 30 minutes. Test compound or vehicle control was administered 10 minutes prior to formalin injection (50 μl of 5% formalin) into the dorsal surface of the right hindpaw of the rat. The animal was then placed into the chamber of the automated formalin apparatus where movement of the formalin injected paw was monitored and the number of paw flinches tallied by minute over the next 60 minutes. (See Malmberg, A. M., and Yaksh, T. L., Anesthesiology (1993) 79:270-281.)
Results are presented as Maximum Possible Effect±SEM, where saline control=100%.

| Compound | Maximum Possible Effect ± SEM, Phase I | Maximum Possible Effect ± SEM, Phase II | Maximum Possible Effect ± SEM, Phase IIA |
| --- | --- | --- | --- |
| O=C(CN(c1ccccc1)c1ccccc1)N1CCN(C(c2ccccc2)c2cccc(Cl)c2Cl)CC1 (centres unmarked) [Compound P50] | 60 ± 7% | 63 ± 10% | 63 ± 13% |
